In patent publication US7179814B2, “Agents for controlling plant pests” (priority 1998, dated 2007):
Read-outs that look alike come from different tables or passages of the source.

What was measured:
Assay type in all cases: in vivo
[1] = tested on: larvae of the mustard beetle (Phaedon cochleariae); experiment: Phaedon larvae test (cabbage leaf dip)
Experimental: (§1) To produce a suitable preparation of active compound, 1 part by weight of an active compound or an active compound combination is mixed with the stated amounts of solvent and emulsifier, and the concentrate is diluted with water to the desired concentration.
Cabbage leaves (Brassica oleracea) are treated by being dipped into the preparation of active compound of the desired concentration and are populated with larvae of the mustard beetle (Phaedon cochleariae) while the leaves are still moist.
After the desired period of time, the kill in % is determined. 100% means that all beetle larvae have been killed; 0% means that none of the beetle larvae have been killed.

[2] = tested on: Pyrenophora teres; experiment: Pyrenophora teres test (barley)/protective; details: single active compound
Experimental: as §1, with “of” for “of an”, “or” for “or an”, “desired concentration, or a commercial formulation of active compound or active compound combination is diluted with water to the desired” for “desired”
To test for protective activity, young plants are sprayed with the active compound preparation at the stated application rate. After the spray coating has dried on, the plants are sprayed with a conidia suspension of Pyrenophora teres. The plants remain in an incubation cabin at 20° C. and 100% relative atmospheric humidity for 48 hours.
The plants are then placed in a greenhouse at a temperature of approximately 20° C. and a relative atmospheric humidity of approximately 80%.
Evaluation is carried out 7 days after the inoculation. 0% means an efficacy which corresponds to that of the control, whereas an efficacy of 100% means that no infection is observed.

[3] = tested on: Botrytis cinerea; experiment: Botrytis test (bean)/protective; details: single active compound
Experimental: as §1, with “of” for “of an”, “or” for “or an”, “desired concentration, or a commercial formulation of active compound or active compound combination is diluted with water to the desired” for “desired”
To test for protective activity, young plants are sprayed with the active compound preparation at the stated application rate. After the spray coating has dried on, 2 small pieces of agar colonized by Botrytis cinerea are placed onto each leaf. The inoculated plants are placed in a dark chamber at approximately 20° C. and 100% relative atmospheric humidity.
2 days after the inoculation, the size of the disease spots on the leaves is evaluated. 0% means an efficacy which corresponds to that of the control, whereas an efficacy of 100% means that no infection is observed.

[4] = tested on: Diabrotica balteata larvae in soil; experiment: Critical concentration test/soil insects, Diabrotica balteata; details: Diabrotica balteata, 168 h, 7 days after infestation, read-out: Kill in %
Experimental: To produce a suitable preparation of active compound, 1 part by weight of the active compound or the active compound mixture is mixed with the stated amounts of solvent and emulsifier, and the concentrate is diluted with water to the desired concentration.
The active compound preparation is mixed intimately with soil. Here, the concentration of the active compound in the preparation is almost irrelevant; only the amount by weight of active compound or active compound mixture per volume unit of soil, which is stated in ppm (mg/l), matters.
Soil is filled into 0.5 l pots and these are allowed to stand at 20° C. Immediately after preparation, 5 pre-germinated maize corns are placed into each pot. After 2 days, the test insects are placed into the treated soil. After a further 7 days, the kill in % is determined. 100% means that all test insects have been killed; 0% means that none of the test insects have been killed.

[5] = tested on: Heliothis virescens caterpillars; experiment: Heliothis virescens test (soya bean shoot dip); details: concentration 0.00016 %
Experimental: as §1
Soya bean shoots (Glycine max) are treated by being dipped into the active compound preparation of the desired concentration and are populated with Heliothis virescens caterpillars while the leaves are still moist.
After the desired period of time, the kill in % is determined. 100% means that all caterpillars have been killed; 0% means that none of the caterpillars have been killed.

[6] = tested on: green rice leaf hopper (Nephotettix cincticeps); experiment: Nephotettix test (rice seedling dip)
Experimental: as §1
Rice seedlings (Oryza sativa) are treated by being dipped into the active compound preparation of the desired concentration and are populated with the green rice leaf hopper (Nephotettix cincticeps) while the leaves are still moist.
After the desired period of time, the kill in % is determined. 100% means that all the leaf hoppers have been killed; 0% means that none of the leaf hoppers have been killed.

[7] = tested on: Fusarium culmorum; experiment: Fusarium culmorum test (wheat)/seed treatment; details: 75 g/ha, dry seed dressing, approximately 3 weeks after sowing
Experimental: The active compounds are applied as a dry dressing. They are prepared by extending the active compound in question with ground minerals to give a finely pulverulent mixture which ensures even distribution on the surface of the seeds.
For the dressing, the infected seeds are shaken with the dressing in a closed glass bottle for 3 minutes.
2×100 seeds of the wheat are sown at a depth of 1 cm into standard soil, and the wheat is cultivated in a greenhouse at a temperature of approximately 18° C. and at a relative atmospheric humidity of approximately 95% in seed containers receiving 15 hours of light per day.
The evaluation of the plants for symptoms is carried out approximately 3 weeks after sowding. 0% means an efficacy which corresponds to that of the control, whereas an efficacy of 100% means that no infection is observed.

[8] = tested on: caterpillars of the diamondback moth (Plutella xylostella); experiment: Plutella test (cabbage leaf dip)
Experimental: as §1
Cabbage leaves (Brassica oleracea) are treated by being dipped into the preparation of active compound of the desired concentration and are populated with caterpillars of the diamondback moth (Plutella xylostella) while the leaves are still moist.
After the desired period of time, the kill in % is determined 100% means that all caterpillars have been killed; 0% means that none of the caterpillars have been killed.

[9] = tested on: Diabrotica balteata - larvae in the soil; experiment: Critical concentration test/soil insects, Diabrotica balteata (Example Q); details: 1.25 ppm in soil; efficacy calculated from number of emerged maize plants
Experimental: To produce a suitable preparation of active compound, 1 part by weight of active compound is mixed with the stated amount of solvent, the stated amount of emulsifier is added and the concentrate is diluted with water to the desired concentration. Here, the concentration of the active compound in the preparation is almost irrelevant; only the amount by weight of active compound per volume unit of soil, which is stated in ppm (mg/l), matters. The soil is filled into 0.5 l pots and these are allowed to stand at 20° C.
Immediately after preparation, 5 maize corns are placed into each pot. After 3 days, the test insects are placed into the treated soil. After a further 7 days, the efficacy is determined. The efficacy is calculated from the number of maize plants which have emerged.

[10] = tested on: Phytophthora infestans; details: single active compound

**Q.** Which results are given for N#C/N=C1/SCCN1Cc1ccc(Cl)nc1 [formula (I)]?
**A.** Kill in % ([1]; concentration 0.00016 %): 5%; Kill in % ([1]; concentration 0.0008 %): 40%; Efficacy in % calculated/found ([2]; 18.75 g/ha): 20%; Efficacy in % calculated/found ([2]; 62.5 g/ha, 7 days after inoculation): 0%; Efficacy in % ([3]; 10 g/ha, 2 days after inoculation): 0%; Efficacy in % ([3]; 40 g/ha): 0%; Efficacy in % ([3]; 500 g/ha): 0%; pest or weed control at 1.25 ppm ([4]; 1.25 ppm in soil): 0%; pest or weed control at 2.5 ppm ([4]; 2.50 ppm in soil): 40%; pest or weed control at 5 ppm ([4]; 5.00 ppm in soil): 90%; Kill in % [5]: 15%; Kill in % ([6]; concentration 0.000032 %): 0%; Kill in % ([6]; concentration 0.00016 %): 35%; Efficacy in % [7]: 0%; Kill in % ([8]; concentration 0.0008 %): 0%; Kill in % ([8]; concentration 0.004 %): 60%; Kill in % at active compound concentrations in ppm [9]: 1.25 ppm = 50%; Efficacy in % ([10]; 10 g/ha): 0%; Efficacy in % ([10]; 50 g/ha): 11%; Efficacy in % ([10]; 500 g/ha, 3 days after inoculation): 46%
